# Results from the OPERA property sets (Mansouri et al. 2018).
# Conditions: not given
Structure (SMILES),melting point [°C],boiling point [°C],log10 vapour pressure (mmHg),ready biodegradability,log10 Henry constant (atm·m³/mol),log10 Koa,log10 Koc (L/kg)
Clc1ccc(Cn2cncn2)cc1Cl,46.5,,,,,,
C=C(C)C=C(C)C,-114,93.2,,,,,
CCc1ccccc1O,18,204,-0.815,,,,
CCNc1nc(Cl)nc(NCC(=O)OCC)n1,228,,,,,,
CC(C)(C)c1ccc(N)cc1,17,241,,,,,
FC(F)CC(F)(F)F,-102,40,3.05,,,,
COc1ccc(C)cc1,-32,176,,,,,
CC(=O)N[C@@H](CS)C(=O)O,110,,,,,,
Cc1ccc(N=c2sccn2C)c(C)c1,44,,-4.74,,,,
N#CCCN(CCC#N)c1ccc(N=Nc2c(Cl)cc([N+](=O)[O-])cc2Cl)cc1,,,,not readily biodegradable,,,
CCCC(O)C(C)C (configuration not stated),,141,0.129,,,,
ClC1=C(Cl)[C@]2(Cl)[C@H]3[C@H]([C@@H]4C=C[C@H]3C4)[C@@]1(Cl)C2(Cl)Cl (racemic),,,-3.92,,-4.36,8.08,4.69
Cn1c([N+](=O)[O-])cnc1/C=C/c1ccnc(N)n1,234,,,,,,
Cc1cccc(I)c1,-27.2,213,,,,,
CCC(C)(CO)CO,40.3,226,,,,,
c1ccc(C2CCNCC2)cc1,60.5,257,,,,,
Nc1ccccc1C=O,39,,,,,,
C=CCOC(=O)/C=C\C(=O)OCC=C,,,-2.17,,,,
N=C(Nc1ccccc1)Nc1ccccc1,150,,,not readily biodegradable,,,
Cc1cccc(I)c1O,15.5,,,,,,
COC(=O)c1ccccc1S(=O)(=O)NC(=O)Nc1nc(C)nc(OC)n1,162,,,,,,1.54
C=CC(=O)OCCOC,,,,readily biodegradable,,,
Fc1c(F)c(F)c(-c2c(F)c(F)c(F)c(F)c2F)c(F)c1F,67.5,206,,,,,
O=C(O)c1ccc(Br)cc1,254,,-5,,,,
CCc1ccccc1Br,-67.9,199,,,,,

Structure (SMILES),melting point [°C],boiling point [°C],log10 vapour pressure (mmHg),ready biodegradability,log10 Henry constant (atm·m³/mol),log10 Koa,log10 Koc (L/kg)
Clc1ccc2c(Cl)c(Cl)ccc2c1Cl,,,,,,8.28,
CCOC(C)(C)C,-94,73.1,2.09,,-2.79,,
Cc1ccc(C)c2ncccc12,4.5,266,,,,,
CCOc1cc(NC(C)=O)ccc1C(=O)OC,148,,,,,,
OCc1ccccc1I,92,,,,,,
Cc1ccccc1OC(=O)c1ccccc1,,309,,,,,
CC(C)C[Si](Cl)(Cl)Cl,,143,,,,,
C=CCCC(C)(C)C,,104,,,,,
c1cnc2cccnc2c1,75,,,,,,
CCCCCCCCCCCS,-3,257,,,,,
O=C(O)c1cc(I)ccc1O,190,,,,,,
CC(=O)Nc1ccccc1C(=O)O,186,,,,,,
O=C(C1CC1)C1CC1,,161,,,,,
CCCCC(CC)(CO)CO,43.8,262,-4,not readily biodegradable,,,
Cc1c(C)c2c3ccccc3ccc2c2ccccc12,129,,,,,,
CCCCCCCCCCCCCCCC(N)=O,107,,,not readily biodegradable,,,
CCCCCCCCCCN,17,220,-1,readily biodegradable,,,
Clc1ccc(-c2ccc(Cl)c(Cl)c2Cl)c(Cl)c1,,,,,-4.18,,
Cc1cc(C)cc(Br)c1,,204,,,,,
CC(C)(C)NCC(O)COc1ccccc1C#N (configuration not stated),164,,,,,,
Clc1sc(Cl)c(Cl)c1Cl,30.5,233,,,,,
CC[N+](C)(CC)CCOC(=O)C(O)(c1ccccc1)C1CCCCC1.[Br-] (configuration not stated),192,,,,,,
COP(=S)(OC)SCN1C(=O)c2ccccc2C1=O,72,,-6.31,,,,2.91
OCC1(CO)CC=CCC1,88.5,,,,,,
CCCC=C(CCCC)CCCC,,216,,,,,

Structure (SMILES),melting point [°C],boiling point [°C],log10 vapour pressure (mmHg),ready biodegradability,log10 Henry constant (atm·m³/mol),log10 Koa,log10 Koc (L/kg)
CC(C)(C)c1ccccc1,-57.8,169,0.343,readily biodegradable,,,
C=C[Si](C)(Cl)Cl,,92.5,,,,,
COC(=O)c1ccccn1,18.7,,,,,,
C=C=C,-136,-34.4,3.73,,,,
CCOP(=O)(Sc1ccccc1)Sc1ccccc1,,,-6.57,,,,
NS(=O)(=O)c1cc2c(cc1Cl)NC(CC1CCCC1)NS2(=O)=O (configuration not stated),238,,,,,,
CCN(Cc1ccc(Cl)nc1)C(=C[N+](=O)[O-])NC,82.8,,,,,,
CC(C#N)c1ccccc1 (configuration not stated),,231,,,,,
CC(C)CB(CC(C)C)CC(C)C,-88,188,,,,,
Cc1ccc(C(C)C)c(C)c1,-82,197,,,,,
Cc1ccc2cccc(O)c2n1,73.8,267,,,,,
CNC(=O)O/N=C/C(C)(C)S(C)(=O)=O,141,,-4.05,,,,0.42
CCOC(=O)C1CCCC1=O (configuration not stated),,221,,,,,
CCOC(=O)C(CC)C(=O)OCC,,208,,,,,
COC(=O)NN,73,,,,,,
Clc1ccc(C(c2ccccc2Cl)C(Cl)Cl)cc1 (configuration not stated),77,,-5.71,,,,
C[C@H]1CC[C@@]2(O)C(C)(C)[C@@H]3CC[C@@]2(C)[C@H]1C3,56,,,,,,
CCCO[Si](OCCC)(OCCC)OCCC,,226,,,,,
Cc1ccc(S(=O)(=O)O)c(C)c1,57,,,readily biodegradable,,,
Brc1cccc(Br)c1Oc1ccccc1,,,,,,8.12,
Cc1ccsc1Br,,176,,,,,
C[Si](Cl)(Cl)CCl,,122,,,,,
Cc1c(C(C)OC(=O)CCC(=O)O)oc2ccc(C3=CC(=O)OC3)cc12 (configuration not stated),144,,,,,,
O=C(O)[C@H]1CC=CCC1,17,234,,,,,
CCCCOCCC,,118,,,,,

Structure (SMILES),melting point [°C],boiling point [°C],log10 vapour pressure (mmHg),ready biodegradability,log10 Henry constant (atm·m³/mol),log10 Koa,log10 Koc (L/kg)
CCCc1ccc(O)cc1O,82.5,,,,,,
CCC(Br)CBr (configuration not stated),-65.4,166,0.491,,,,
NC(N)=O,,,-4.92,readily biodegradable,,,0.15
COCCOc1ccccc1S(=O)(=O)N=C(O)N=c1nc(OC)[nH]c(OC)n1,130,,,,,,
CCc1nc(C)cnc1C,,180,,,,,
O=C1CCCC(=O)N1,156,,,,,,
CN(C)c1ccc(N)cc1,53,263,,,,,
C1CCC2C(C1)CCC1C3CCCCC3CCC21 (configuration not stated),115,353,,,,,
O=C(O)c1ccccc1C(F)(F)F,111,,,,,,
C=C(C)C(=O)Nc1ccc(Cl)c(Cl)c1,128,,,,,,
CC(=O)CCc1ccccc1,-13,234,,not readily biodegradable,,,
C=CC(=O)OCCO,,191,-1.28,readily biodegradable,,,
Oc1ccccc1Cc1ccccc1O,,,,not readily biodegradable,,,
CCCCOC(=O)C1(O)c2ccccc2-c2ccccc21,71,,,,,,
O=[N+]([O-])c1ccccc1Cl,,,,not readily biodegradable,,,
C=CC(=O)NCO,74.5,,,,,,
C[C@H](O)CC[C@H](C)O,43,218,,,,,
CCC(OC(N)=O)C1CCCCC1 (configuration not stated),128,,,,,,
COc1c2ccoc2cc2oc(CO[C@@H]3O[C@H](CO)[C@@H](O)[C@H](O)[C@H]3O)cc(=O)c12,179,,,,,,
C[Si](C)(Cl)c1ccccc1,,,-0.14,,,,
CCCCCCOC(=O)CCCCC(=O)OCCCCCC,,,-5.54,,,,
C=CCC1(c2ccccc2)C(=O)NC(=O)NC1=O,156,,,,,,
COC(=O)CCCCCCC(=O)OC,-3.1,268,,,,,
N[C@@H](Cc1cc(I)c(Oc2cc(I)c(O)c(I)c2)c(I)c1)C(=O)O,236,,,,,,
C=CCc1ccc(O)cc1,15.8,238,,,,,

Structure (SMILES),melting point [°C],boiling point [°C],log10 vapour pressure (mmHg),ready biodegradability,log10 Henry constant (atm·m³/mol),log10 Koa,log10 Koc (L/kg)
CCCCCCCC/C=C\CCCCCCCCO,,,,readily biodegradable,,,
O=C1C(=O)c2ccccc2-c2ccccc21,209,360,,,,,
CC(=O)COc1ccccc1,,230,,,,,
CC(C)CC(=O)C1C(=O)c2ccccc2C1=O,68.5,,,,,,
C#CCC1CCCCC1,,158,,,,,
O=C(OCC(=O)N1CCC(O)CC1)c1ccccc1,122,,,,,,
Nc1ccccc1Cl,-14,209,-0.69,not readily biodegradable,,,
CCO[Si](OCC)(OCC)OCC,-82.5,169,0.275,,,,
O=C(O)CC(O)C(=O)O (configuration not stated),131,,-7.48,readily biodegradable,,,
CC(C)=NN=C(C)C,-12.5,133,,,,,
CCCCCCC(=O)OCC,-66.1,187,-0.168,,-3.3,,2.61
C1=CCC2CC2C1 (configuration not stated),,125,1.36,,,,
O=C(c1cccs1)c1cccs1,90,326,,,,,
CCC(C)CS (configuration not stated),,116,1.3,,,,
Clc1cccc(Oc2ccccc2)c1,,,-2.42,,,,
CCCCCCCOCC,-68.3,166,,,,,
CCCOC(=O)c1ccccc1C(=O)OCCC,,318,-3.88,,,,
O=S1(=O)OCCO1,99,,,,,,
CC(=O)OC[C@H]([C@H](OC(C)=O)c1ccccc1)[N+](=O)[O-],70,,,,,,
FC(Cl)(Cl)Br,-106,52,,,,,
Clc1cc2oc3c(Cl)c(Cl)c(Cl)c(Cl)c3c2cc1Cl,,,,,,10.8,
Clc1cccc(-c2cc(Cl)c(Cl)c(Cl)c2Cl)c1Cl,,,,,-4.54,,
O=c1c(O)c(-c2ccc(O)c(O)c2)oc2cc(O)ccc12,330,,,,,,

# Same assay, conditions: fish
Structure (SMILES),log10 BCF,log10 biotransformation half-life (days)
ClC1=C(Cl)[C@]2(Cl)[C@H]3[C@H]([C@@H]4C=C[C@H]3C4)[C@@]1(Cl)C2(Cl)Cl (racemic),3.74,1.37
N=C(Nc1ccccc1)Nc1ccccc1,1.3,
Clc1ccc2c(c1)oc1c(Cl)cccc12,,0.58
COP(=S)(OC)SCN1C(=O)c2ccccc2C1=O,0.26,
CCOP(=O)(Sc1ccccc1)Sc1ccccc1,1.51,-1.04
Clc1ccc(C(c2ccccc2Cl)C(Cl)Cl)cc1 (configuration not stated),,1.65
CCCCCCCCCCCCCOC(=O)CCCCC(=O)OCCCCCCCCCCCCC,,-0.43
O=[N+]([O-])c1ccccc1Cl,1.17,-0.58
Nc1ccccc1Cl,0.95,-0.61
Clc1cc2oc3c(Cl)c(Cl)c(Cl)c(Cl)c3c2cc1Cl,3.9,
